Laboratory results reported in article PMC7143862, “Prostaglandins Isolated from the Octocoral Plexaura homomalla: In Silico and In Vitro Studies Against Different Enzymes of Cancer” (Marine Drugs, 2020).
Converted amounts (≈) assume the structure as drawn.

Tests used:
skin cancer cells = test system: skin cancer cells; set-up: method as in PMID 30858059, PMID 28292936; details: cited from earlier work
[1] = test system: L929 fibroblast cell line; assay: MTT cell proliferation assay, L929; assay type: cell-based; details: 48 h treatment, healthy mouse fibroblasts
Excerpt: (§1) All materials and reagents for cell culture were purchased from Sigma Aldrich (Saint Louis, MS, USA). For the assay, two human cancer cell lines and two cell lines, one human and one mouse as controls, were used. The human breast cancer cell line (MDA-MB-231 ATCC®) and lung cancer cell line (A549 ATCC®) were maintained in Dulbecco’s modified Eagle medium (DMEM) supplemented with 10% of fetal bovine serum and 1% of penicillin. The primary human dermal fibroblasts from adult skin (HDFa ATCC®) and the cell line from mouse adipose tissue (L929 ATCC®) were maintained in Roswell Park Memorial Institute medium (RPMI) supplemented with 10% of fetal bovine serum and 1% of penicillin, all cells in incubator with 5% CO2 at 37 °C [25].
(§2) Antiproliferative studies were carried out using the modified MTT assay based on a previously published method. In this case, 100 μL of cell suspension from the tumor lines was seeded in 96-well plates with a cellular density of 20,000 cells/well and incubated with 5% CO2 at 37 °C to allow cell adhesion. After 48 h, the supernatant was discarded and the cells were treated with different concentrations (5, 10, 25, 50, and 100 μg/mL) of the natural compounds 1 and 2 and the semisynthetic derivatives 3–5 dissolved in an unsupplemented medium. The plate was incubated for 48 h with 5% CO2 at 37 °C. Subsequently, 100 μL of an MTT solution at 0.5 mg/mL was added to each well and placed back in the incubator for 2 h. The supernatant was removed and 100 μL of DMSO was added to incubate for 15 min. Finally, absorbance (OD) at 595 nm was measured on an iMark ™ Microplate reader (Bio-Rad, Hercules, CA, USA).
(§3) The cytotoxic activity was quantified by calculating the mean inhibitory concentration (IC50), normalizing the absorbance data and converting them into percentages of inhibition. With a nonlinear 4PL regression, the IC50 was found, as developed by Sebaugh, using the PrimsGraph Pad® program (GraphPad Software Inc., San Diego, CA, USA).

topoisomerase IIα = target: T1, topoisomerase IIα (Homo sapiens, UniProt P11388); assay: Topoisomerase IIα drug detection kit, kDNA agarose gel; assay type: biochemical; details: normalized with 1% DMSO
T1 construct: purchased TopoGen
T1 sequence (P11388 whole entry): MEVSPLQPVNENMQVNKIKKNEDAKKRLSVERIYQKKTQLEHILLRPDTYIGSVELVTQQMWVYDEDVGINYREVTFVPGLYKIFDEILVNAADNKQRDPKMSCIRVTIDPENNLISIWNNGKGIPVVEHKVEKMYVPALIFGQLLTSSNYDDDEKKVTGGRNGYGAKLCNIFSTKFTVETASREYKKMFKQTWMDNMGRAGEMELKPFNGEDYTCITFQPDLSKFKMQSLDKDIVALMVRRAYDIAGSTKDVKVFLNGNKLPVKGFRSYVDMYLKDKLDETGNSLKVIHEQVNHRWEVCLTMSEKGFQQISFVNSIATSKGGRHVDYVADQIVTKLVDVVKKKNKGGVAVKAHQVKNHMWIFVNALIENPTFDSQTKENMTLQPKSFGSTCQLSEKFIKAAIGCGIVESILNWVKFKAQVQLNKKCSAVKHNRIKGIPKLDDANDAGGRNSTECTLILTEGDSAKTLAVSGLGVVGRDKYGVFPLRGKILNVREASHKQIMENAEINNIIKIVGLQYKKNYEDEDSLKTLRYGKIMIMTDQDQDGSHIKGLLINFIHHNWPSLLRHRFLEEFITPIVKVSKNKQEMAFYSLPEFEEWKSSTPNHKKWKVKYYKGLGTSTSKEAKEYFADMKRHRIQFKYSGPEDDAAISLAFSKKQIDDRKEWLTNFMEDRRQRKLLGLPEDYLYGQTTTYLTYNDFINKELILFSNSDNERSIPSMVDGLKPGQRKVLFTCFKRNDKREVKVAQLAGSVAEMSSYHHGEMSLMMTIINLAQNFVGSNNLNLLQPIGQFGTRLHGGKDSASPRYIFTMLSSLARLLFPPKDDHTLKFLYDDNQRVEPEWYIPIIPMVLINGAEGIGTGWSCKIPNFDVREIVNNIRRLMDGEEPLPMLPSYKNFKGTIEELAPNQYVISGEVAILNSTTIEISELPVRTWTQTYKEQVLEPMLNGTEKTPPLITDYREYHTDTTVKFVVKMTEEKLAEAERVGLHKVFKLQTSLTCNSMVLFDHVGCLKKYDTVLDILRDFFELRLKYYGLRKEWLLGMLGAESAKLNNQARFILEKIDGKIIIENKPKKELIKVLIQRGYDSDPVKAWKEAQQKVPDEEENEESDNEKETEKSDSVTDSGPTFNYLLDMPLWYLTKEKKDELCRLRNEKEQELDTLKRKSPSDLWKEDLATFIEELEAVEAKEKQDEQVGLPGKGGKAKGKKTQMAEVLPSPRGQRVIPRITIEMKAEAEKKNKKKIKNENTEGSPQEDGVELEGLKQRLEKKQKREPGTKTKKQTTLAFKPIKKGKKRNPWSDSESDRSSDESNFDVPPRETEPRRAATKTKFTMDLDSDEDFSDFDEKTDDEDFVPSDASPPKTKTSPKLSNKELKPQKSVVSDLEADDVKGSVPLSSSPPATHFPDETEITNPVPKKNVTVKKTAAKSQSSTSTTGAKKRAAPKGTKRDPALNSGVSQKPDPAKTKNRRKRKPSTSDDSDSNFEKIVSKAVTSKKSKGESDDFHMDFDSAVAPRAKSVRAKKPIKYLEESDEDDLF
Protocol: The Topoisomerase IIα drug detection kit (TopoGen, Buena Vista, VA, USA) was used. Reactions were made with 4 μL of reaction buffer (50 mM Tris-HCl, 5 mM ATP, 150 mM NaCl, 30 μg/mL bovine serum albumin, 0.5 mM dithiothreitol, 10 mM MgCl2), 1 μL of the enzyme topoisomerase IIα ([…], 2 units), 1 μL of the kDNA substrate (approximately 200 ng) and 1 μL of the compounds with activity at 10 μM, so that the final volume was 20 μL completing with nuclease-free water. These reactions were incubated at 37 °C for 30 min, and the reaction was terminated with 4 μL of stop buffer.

p38α-kinase = target: T2, p38α-kinase (Homo sapiens, UniProt Q16539); assay: p38α Kinase Enzyme System, ADP-Glo luminescence; assay type: biochemical
T2 construct: purchased Promega Corporation
T2 sequence (Q16539 whole entry): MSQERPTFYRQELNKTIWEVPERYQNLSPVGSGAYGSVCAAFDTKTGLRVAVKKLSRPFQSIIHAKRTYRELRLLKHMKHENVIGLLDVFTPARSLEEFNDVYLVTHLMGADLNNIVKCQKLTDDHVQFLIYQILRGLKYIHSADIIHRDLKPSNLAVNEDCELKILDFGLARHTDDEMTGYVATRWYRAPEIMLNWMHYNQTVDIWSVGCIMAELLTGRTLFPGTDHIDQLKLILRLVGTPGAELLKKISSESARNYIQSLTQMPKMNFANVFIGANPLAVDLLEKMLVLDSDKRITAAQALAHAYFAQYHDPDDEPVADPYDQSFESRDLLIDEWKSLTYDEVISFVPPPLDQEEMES
Excerpt: Possibly due to a higher concentration of compounds that generate interaction with a site of the enzymes different from the active site, which leads to a lower inhibition, as explained by Abdel-Magid, where it is stated that most of the drugs are designed to join the primary active sites of the enzymes, known as orthostatic sites. However, these can also have secondary sites or allosteric, in which, at the time of the inhibitors join them, a secondary effect is generated causing an increase in enzymatic activity. Therefore, it was not possible to obtain an IC50 value and the results were analyzed by the area under the curve (AUC). This performs the integral of the function of the logarithm of the concentration vs. luminescence for each of the compounds, and in this way to be able to compare the activity between them.
(§4) For the assay of the enzymatic activity, the p38α Kinase Enzyme System (Promega Corporation, Madison, WI, USA) and Src Kinase Enzyme System (Promega Corporation, Madison, WI, USA) kits were used. In this case 25 μL of reaction were added to each well (in the final concentrations shown in Table 4), where 10 μL were from substrate solution (0.2 mg/mL substrate, ATP and 1 × buffer kinase (Promega Corporation)), 10 μL of kinase solution (kinase (Promega Corporation), 1 × buffer kinase (Promega Corporation) and nuclease-free water) and 5 μL of the compounds initially prepared at 1 mM in DMSO and performing serial dilutions in Buffer Kinase (Promega Corporation) from 10 μM to 0.625 μM according to protocol for the kits (Promega Corporation, 2018). The plates were left at room temperature for 1 h, then 25 μL of ADP-Glo ™ Reagent (Promega Corporation) were added, these were placed at room temperature again for 40 min. Finally, 50 μL of the kinase detection reagent will be added and left at room temperature for 45 min [28]. The measurement was made by means of luminescence in an integration time of 0.5 to 1 s in the GENios Plus microplate reader (Grödig/Salzburg, Austria).

[2] = test system: MDA-MB-231 breast cancer cell line; assay: MTT cell proliferation assay, MDA-MB-231; assay type: cell-based; details: Homo sapiens, 48 h treatment, breast cancer cells
Excerpt: as §1, §2, §3

Src-kinase = target: T3, Src-kinase (Homo sapiens, UniProt P12931); assay: Src Kinase Enzyme System, ADP-Glo luminescence; assay type: biochemical; details: for Src-kinase area under the curve (AUC): log concentration vs. luminescence, 10 to 0.625 μM, smaller area = more inhibition
T3 construct: purchased Promega Corporation
T3 sequence (P12931 whole entry): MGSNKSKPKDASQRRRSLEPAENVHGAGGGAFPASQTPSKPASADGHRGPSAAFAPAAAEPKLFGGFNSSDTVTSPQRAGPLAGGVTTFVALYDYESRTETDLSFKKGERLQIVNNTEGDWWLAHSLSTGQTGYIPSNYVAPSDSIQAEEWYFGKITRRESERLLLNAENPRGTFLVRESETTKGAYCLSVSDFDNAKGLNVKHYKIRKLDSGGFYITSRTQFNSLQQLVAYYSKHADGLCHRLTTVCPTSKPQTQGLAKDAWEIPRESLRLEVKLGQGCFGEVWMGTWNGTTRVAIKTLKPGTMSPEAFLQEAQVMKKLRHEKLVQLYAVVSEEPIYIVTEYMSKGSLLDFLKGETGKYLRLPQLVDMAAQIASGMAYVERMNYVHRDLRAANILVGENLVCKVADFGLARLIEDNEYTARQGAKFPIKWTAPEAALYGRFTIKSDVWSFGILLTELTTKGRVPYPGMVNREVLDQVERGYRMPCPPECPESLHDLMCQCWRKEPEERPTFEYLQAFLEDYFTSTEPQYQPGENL
Excerpt: On the other hand, there are several enzymes that may be involved in several types of cancer, such as non-receptor tyrosine kinase (c-Src) which belongs to the family of kinases and is expressed in all cell types, but its activity is related to advanced malignancies and an unfavorable prognoses of human cancers, so it is considered a molecular target for studies of potential inhibitors. As with the previous enzyme, similar behavior was obtained, so the area under the curve of each of the compounds was also calculated in order to know which of them generate greater inhibition.
as §4

[3] = test system: HDFa dermal fibroblast cell line; assay: MTT cell proliferation assay, HDFa; assay type: cell-based; details: 48 h treatment, healthy human dermal fibroblasts
Excerpt: as §1, §2, §3

[4] = test system: A549 lung cancer cell line; assay: MTT cell proliferation assay, A549; assay type: cell-based, human; details: lung cancer cells; for IC50: Homo sapiens, A549, 48 h treatment
Excerpt: as §1, §2, §3

[5] = test system: lung cancer cells line (A549); set-up: method as in PMID 28635645; details: cited from earlier work

| Compound | inhibition at 10 µM (topoisomerase IIα) | inhibition at 2.5 µM (p38α-kinase) | IC50 [2] | inhibition at 2.5 µM (Src-kinase) | Src-kinase area under the curve (AUC) (Src-kinase) | IC50 A549 ([4]; 48 h treatment) | IC50 [4] | p38α-kinase % inhibition (p38α-kinase; at 2.5 μM) | IC50 (skin cancer cells) | IC50 [1] | IC50 [3] | IC50 [5] |
| --- | --- | --- | --- | --- | --- | --- | --- | --- | --- | --- | --- | --- |
| CCCCC/C=C/C=C1/C(=O)C=CC1C/C=C\CCCC(=O)NCCO (stereo not shown) [15-deoxy-Δ^12,14-PGJ2-EA] | – | – | – | – | – | – | – | – | 20 µM | – | – | – |
| CCCCC[C@H](O)/C=C/[C@H]1C(=O)C[C@H](O)[C@@H]1C/C=C\CCCC(=O)NCCO [PGD2-EA] | – | – | – | – | – | – | – | – | 18 µM | – | – | – |
| COc1cccc2c1C(=O)c1c(O)c3c(c(O)c1C2=O)C[C@@](O)(C(=O)CO)C[C@@H]3O[C@H]1C[C@H](N)[C@H](O)[C@H](C)O1 [doxorubicin, reference compound] | 88% | – | – | – | – | – | – | – | – | – | – | – |
| sardysterol | – | – | – | – | – | – | – | – | – | – | – | 27.3 µM |

Continued, in another order:

| inhibition at 10 µM (topoisomerase IIα) | inhibition at 2.5 µM (p38α-kinase) | IC50 [2] | inhibition at 2.5 µM (Src-kinase) | Src-kinase area under the curve (AUC) (Src-kinase) | IC50 A549 ([4]; 48 h treatment) | IC50 [4] | p38α-kinase % inhibition (p38α-kinase; at 2.5 μM) | Compound | IC50 (skin cancer cells) | IC50 [1] | IC50 [3] | IC50 [5] |
| --- | --- | --- | --- | --- | --- | --- | --- | --- | --- | --- | --- | --- |
| 45% | 42% | 27.5 µg/mL (≈ 70.5 µM) | < 40% | above 1500 | ineffective | > 100 µg/mL | – | CCCCCC(/C=C/[C@H]1C=CC(=O)[C@@H]1C/C=C\CCCC(=O)OC)OC(C)=O (stereo partly shown) [Compound 1, (5Z,13E)-15-acetyl-oxy-9-oxo-prosta-5,10,13-trien-1-oic acid methyl ester] | – | 71.7 µg/mL (≈ 184 µM) | 28.3 µg/mL (≈ 72.4 µM) | – |
| 64% | 49% | 16.5 µg/mL (≈ 49.2 µM) | 59% | 921 | – | 25.2 µg/mL (≈ 75.3 µM) | – | CCCCCC(O)/C=C/[C@H]1C=CC(=O)[C@@H]1C/C=C\CCCC(=O)O (stereo partly shown) [Compound 2, (5Z,13E) -15-hydroxy-9-oxoprosta 5,10,13 trien-1-oic acid] | – | 40.4 µg/mL (≈ 121 µM) | 17.9 µg/mL (≈ 53.4 µM) | – |
| 43% | 37% | > 100 µg/mL | < 40% | – | – | > 100 µg/mL | – | CCCCCC(/C=C/[C@H]1CC[C@@H](O)[C@@H]1C/C=C\CCCC(=O)OC)OC(C)=O (stereo partly drawn) [Compound 3, (5Z,9β,13E)-15-acetyloxy-9-hydroxy-prosta-5,13-dien-1-oic acid methyl ester] | – | > 100 µg/mL | > 100 µg/mL | – |
| 26% | 37% | > 100 µg/mL | < 40% | – | – | > 100 µg/mL | – | CCCCCC(/C=C/[C@H]1CC[C@H](O)[C@@H]1C/C=C\CCCC(=O)OC)OC(C)=O (stereo partly drawn) [Compound 4, (5Z,9α,13E)-15-acetyloxy-9-hydroxy-prosta-5,13-dien-1-oic acid methyl ester] | – | 54.3 µg/mL (≈ 138 µM) | 50.7 µg/mL (≈ 128 µM) | – |
| 24% | 39% | > 100 µg/mL | 46% | – | – | > 100 µg/mL | 36% | CCCCC[C@@H](O)/C=C/[C@H]1CCC(O)[C@@H]1C/C=C\CCCCO (stereo partly shown) [Compound 5, (5Z,13E)-1,9,15-triol-prosta-5,13-diene] | – | > 100 µg/mL | > 100 µg/mL | – |
